Source: patent US12227577B2, “Combination of a PD-1 antagonist, an ATR inhibitor and a platinating agent for the treatment of cancer” (Merck Patent GMBH, priority 2018, dated 2025)
Where “and” joins values, the source holds several entries; their conditions need not be identical. Equal entries are not always repeated.

Tests used:
[1] = tested on: MC38 colorectal cancer syngeneic model; experiment: Experiment 2A: triple combination of Avelumab, Cisplatin and ATRi 1 in subcutaneous MC38 model; format: in vivo, C57BL/6 mice; settings: Exp. 2A; for Tumor-free mice on day 66: 10 mice per group; for Median survival: Kaplan-Meier, survival data up to day 66, euthanized at tumor burden of 3,000 mm^3; for TGI % (%) / T/C (%) / anti-tumor activity: day 17; for T/C (%): treated vs control group mean volume; for anti-tumor activity: in words
Description: The objective of this study was to evaluate the in vivo anti-tumor efficacy of a triple combination treatment comprising avelumab, a platinating agent (cisplatin or carboplatin) and ATRi 1 (Compound 1) in the subcutaneous MC38 colorectal cancer syngeneic model in C57BL/6 mice.
The tumor cells were routinely subcultured twice weekly by trypsin-EDTA treatment.
Treatments were started on day 7 after tumor inoculation when the average tumor size reached approximately 80 mm^3. […] Each group consisted of 10 tumor-bearing mice.
(§1) The major endpoint was to see if the tumor growth could be delayed or mice could be cured. Tumor size was measured twice weekly in two dimensions using a caliper, and the volume was expressed in mm^3 using the formula: V=0.5 a×b^2 where a and b are the long and short diameters of the tumor, respectively. The tumor size was then used for calculation of T/C values. The T/C value (in percent) is an indication of antitumor effectiveness; T and C are the mean volumes of the treated and control groups, respectively, on a given day. TGI was calculated for each group using the formula: TGI (%)=[1−(Ti−T0)/(Vi−V0)]×100; Ti is the average tumor volume of a treatment group on a given day, TO is the average tumor volume of the treatment group on the day of treatment start, Vi is the average tumor volume of the vehicle control group on the same day with Ti, and V0 is the average tumor volume of the vehicle group on the day of treatment start. Animals were euthanized as they reached tumor burden of 3,000 mm^3 per IACUC regulations and the time to reach this endpoint was used for Kaplan-Meier survival analysis.
Statistical analysis of difference in the tumor volume among the groups were conducted on the data obtained at the best therapeutic time point on day 17 after the start of treatment). A one-way ANOVA was performed, and when a significant F-statistics (a ratio of treatment variance to the error variance) was obtained, comparisons between groups were carried out with Games-Howell test. All data were analyzed using SPSS 17.0. p<0.05 was considered to be statistically significant.
(§2) Statistical analysis of difference in survival rate among the groups were conducted on the survival data up to day 66 after the start of treatment. Kaplan-Meier test was performed, all data were analyzed using GraphPad Prism 6.0., comparisons between groups were carried out with Log-rank test, p<0.05 was considered to be statistically significant.
The anti-tumor efficacy of the triple combination avelumab, cisplatin and ATRi 1 was tested according to the above methods and with the experimental design outlined in Table 2.

[2] = tested on: MC38 colorectal cancer syngeneic model; experiment: Experiment 2B: triple combination of Avelumab, Carboplatin and ATRi 1 in subcutaneous MC38 model; format: in vivo, C57BL/6 mice; settings: Exp. 2B; for Tumor-free mice on day 66: 10 mice per group; for Median survival: Kaplan-Meier, survival data up to day 66, euthanized at tumor burden of 3,000 mm^3; for TGI % (%) / T/C (%) / anti-tumor activity: day 17; for T/C (%): treated vs control group mean volume; for anti-tumor activity: in words; for Tumor Size (mm^3) at day 17: day 17 after start of treatment, Mean ± SEM, Avelumab 400 μg i.v. days 3, 6, 9, Carboplatin 60 mg/kg i.p., ATRi 1 60 mg/kg p.o. days 0, 7
Description: The MC38 tumor cells were maintained in vitro as a monolayer culture in DMEM+2 mM glutamine supplemented with 10% heat inactivated fetal bovine serum, 100 U/ml penicillin and 100 μg/ml streptomycin at 37° C. in an atmosphere of 5% CO2 in air. The tumor cells were routinely subcultured twice weekly by trypsin-EDTA treatment. The cells growing in an exponential growth phase were harvested and counted for tumor inoculation.
Each mouse was inoculated subcutaneously at the right upper flank with MC38 cells (3×10^5) in 0.1 mL of PBS for tumor development. Treatments were started on day 7 after tumor inoculation when the average tumor size reached approximately 80 mm^3. The animals were assigned into groups using an Excel-based randomization software performing stratified randomization based upon their tumor volumes. Each group consisted of 10 tumor-bearing mice. The tested compounds were administered to the mice according to the predetermined regimen shown in the experimental design Table 2 and Table 6, respectively.
as §1
A one-way ANOVA was performed, and when a significant F-statistics (a ratio of treatment variance to the error variance) was obtained, comparisons between groups were carried out with Games-Howell test. All data were analyzed using SPSS 17.0. p<0.05 was considered to be statistically significant.
as §2
The anti-tumor efficacy of the triple combination avelumab, carboplatin and ATRi 1 was tested according to the above methods and with the experimental design outlined in Table 6.

[3] = tested on: MB49 syngeneic tumor model; experiment: Triple combination treatment in murine subcutaneous MB49 tumor model; format: in vivo, C57BL/6 female mice; settings: for Median survival: Kaplan-Meier, sacrificed when tumor volume reached 2000 mm^3; for Tumor Size (mm^3) at day 18: day 18, Mean ± SEM, Avelumab 400 μg i.v. days 3, 6, 9, Carboplatin 60 mg/kg i.p., ATRi 1 60 mg/kg p.o. days 0, 7; for TGI % (%): day 18 after start of treatment, vs control group; for tumor growth inhibition effect: in words, compared to the control group
Description: C57BL/6 female mice at 8-9 weeks of age where subcutaneously injected into the right flank with 0.5×10^6 of viable MB49 tumor cells in 0.1 mL PBS. The animals were randomized and therapy initiated when the tumors reached a volume of around 100 mm^3 (day 0 of treatment). Each group consisted of 10 tumor-bearing mice. The tested compounds were administered to the mice according to the predetermined regimen shown in the experimental design Table 14:
The tumor size was then used for calculation of T/C values.
The body weight was also measured twice a week. Mice were sacrificed when the tumor volume reached 2000 mm^3.
One-way analysis of variance (ANOVA) with Bonferroni's Multiple Comparisons Test, two-way ANOVA, unpaired t-test and Log-rank test from the GraphPad Prism software package were used (Prism 5 for Windows, Version 5.0, GraphPad Software Inc., San Diego, CA). p<0.05 was considered to be statistically significant.

[4] = 10 mg/kg dose; cited from earlier work

Compound	Tumor-free mice on day 66 [1]	Median survival [1] [days]	TGI % (%) [1] [%]	T/C (%) [1] [%]	anti-tumor activity [1]	Tumor-free mice on day 66 [2]	Median survival [2] [days]	TGI % (%) [2] [%]	T/C (%) [2] [%]	anti-tumor activity [2]	Median survival [3] [days]	Tumor Size (mm^3) at day 18 [3] [mm^3]	TGI % (%) [3] [%]	tumor growth inhibition effect [3]	Tumor Size (mm^3) at day 17 [2]	receptor occupancy [4]	tolerability [4]
N.N.[Cl][Pt][Cl] [Cisplatin, reference compound]	0/10	28	38.7	63.1	minor anti-tumor activity												
CNCc1ccc(-c2cc(-c3nc(-c4ccc(S(=O)(=O)C(C)C)cc4)cnc3N)on2)cc1 [ATRi 1, 3-[3-(4-Methylaminomethyl-phenyl)-isoxazol-5-yl]-5-[4-(propane-2-sulfonyl)-phenyl]-pyrazin-2-ylamine]	0/10	24	11.6	88.9	minor anti-tumor activity	0/10	21	−31.2	129.5	minor anti-tumor activity	21	2087 ± 333	7.8	did not show any significant tumor growth inhibition effect			
Avelumab: fully human monoclonal antibody of the immunoglobulin (Ig) G1 isotype; selectively binds to PD-L1	0/10	26	41.8	60.2	minor anti-tumor activity	0/10	31	47.8	54.9	minor anti-tumor activity	22.5	1378 ± 175	39.1	moderate tumor growth inhibition effect	774 mm^3 and 774 ± 153 mm^3	excellent	well tolerated
N.N.O=C([O-])C1(C(=O)[O-])CCC1.[Pt+2] [Carboplatin, reference compound]						0/10	28	55.5	47.6	minor anti-tumor activity	21	1814 ± 212	19.9	did not show any significant tumor growth inhibition effect	671 mm^3 and 671 ± 160 mm^3		
